Patent publication US10463590B1, “Antiplaque and dental health oral formulation” (priority 2018, dated 2019)

Columns and labels:
Assay type in all cases: cell-based
[1] = system: pre-existing biofilm of Streptococcus mutans and Streptococcus sorbinus; assay: Pre-formed biofilm killing (biocidal) effect, alamar Blue assay after 24 h; details: 500 μg/ml amoxicillin (FIG. 7E)
Protocol: (§1) Two oral Streptococcus species, i.e., Streptococcus mutans AU159 strain and Streptococcus sorbinus SL1 strain, obtained from the American Type Culture Collection (Manassas, Va.), were tested in their two morphological forms: cocci planktonic form and biofilm. The stocks of both species were cultured in commonly used conditions, i.e., BHI broth (Remel, San Diego, Calif.) without antibiotics at 37° C. with 5% CO2, in sterile two-position cap 5 ml polypropylene test tubes.
Qualitative and quantitative efficacy of the test mix against biofilm of Streptococcus mutans and Streptococcus sorbinus was evaluated by the commonly used crystal violet (CV) staining method supported by alamarBlue staining assay (where resazurin, a non-fluorescent indicator dye, is converted to bright red-fluorescent resorufin via the reduction reactions of metabolically active cells and the amount of fluorescence produced is proportional to the number of living cells) for evaluating cellular health, according to guidance of American Society for Microbiology and manufacturer's protocol to establish MBEC (Minimal Biofilm Eradication Concentration) and MBBC (Minimal Biofilm Biocidal Concentration) values. Briefly, 1×10^7 CFU/ml from homogeneous bacterial culture in BHI broth containing 1% sucrose, as a standard approach, was inoculated into saliva-coated 96-well plates and supplemented with the test mix. […]

[2] = system: biofilm of Streptococcus mutans and Streptococcus sorbinus; assay: Preventive effect on biofilm formation, crystal violet staining assay after 24 h; details: 10 μg/ml amoxicillin (FIG. 7C)
Protocol: as §1
Preventive effect of the test mix against biofilm of Streptococcus mutans and Streptococcus sorbinus was evaluated by the commonly used crystal violet (CV) staining method, according to guidance of American Society for Microbiology to establish MBFC (Minimal Biofilm Formation Concentration) value. Briefly, 1×10^7 CFU/ml from homogeneous bacterial culture in BHI broth containing 1% sucrose, as a standard approach, was inoculated into saliva-coated 96-well plates and supplemented with the test mix. Control wells were treated with DMSO (i.e., 0.1-0.4% v/v) alone or amoxicillin (i.e., 10 μg/ml). All plates were then incubated at 37° C. with 5% CO2 for 24 h. […] The biofilms were carefully washed three times with 1×PBS (phosphate-buffered saline), and 200 μl of methanol was added to each well to extract a dye which was measured at 595 nm using a spectrophotometer (Molecular Device, Spectra Max 340). […]

[3] = system: Streptococcus mutans and Streptococcus sorbinus; assay: Bactericidal effect, broth macro-dilution combined with plating assay after 24 h; details: 10 μg/ml amoxicillin (FIG. 7B)
Protocol: as §1
The plates were then incubated at 37° C. with 5% CO2 and bacterial re-growth was assessed after 24 h. The entire experiment was repeated three times for each strain. Control cultures were treated with DMSO (i.e., 0.1-0.4% v/v) alone or amoxicillin (i.e. 10 μg/ml).

[4] = system: Streptococcus mutans and Streptococcus sorbinus; assay: Bacteriostatic effect, broth macro-dilution assay (OD600) after 24 h; details: 10 μg/ml amoxicillin (FIG. 7A)
Protocol: as §1
Growth inhibition of Streptococcus mutans and Streptococcus sorbinus was tested using standard macro-dilution method according to guidance of American Society for Microbiology to establish MIC (Minimal Inhibitory Concentration) value. Briefly, sterile 3 ml test two-position capped tubes containing 1 ml BHI broth, supplemented with the test mix was inoculated with 1×10^7 CFU/ml of the homogenous bacterial suspension. The tubes were then incubated at 37° C. with 5% CO2 and growth inhibition as a decrease in the optical density (OD600) was measured after 24 h. The entire experiment was repeated three times for each strain. Control cultures were treated with DMSO (i.e., 0.1-0.4% v/v) alone or amoxicillin (i.e. 10 μg/ml).

CC1(C)S[C@@H]2[C@H](NC(=O)[C@H](N)c3ccc(O)cc3)C(=O)N2[C@H]1C(=O)O [amoxicillin]
biocidal effect on pre-existing biofilm [1]: approximately 20% | preventive effect on biofilm formation [2]: approximately 99% | bactericidal effect [3]: 100% | bacteriostatic effect [4]: 100%
